Experimental data reported in US4587342A, “2,4-diamino-(substituted-benzopyran(quinolyl,isoquinoly)methyl)pyrimidine s useful as antibacterials” (priority 1980, dated 1986).
Values after ≈ are worked out from the molar mass of the structure shown.

What was measured:
Staph. aureus = assay: MIC vs Staph. aureus (Table 2); format: cell-based; conditions: Staphylococcus aureus, strain not given
Description: (§1) The compounds of the present invention were subjected to standard tests in order to determine the minimum inhibitory concentration in μg/ml needed to inhibit a range of bacterial microorganisms in-vitro.

St. faecalis CN478 = assay: MIC against St. faecalis CN478 in vitro; format: cell-based; conditions: Enterococcus faecalis, read-out: Minimum Inhibitory Concentration (MIC)
Description: as §1

B. fragilis = assay: MIC against B. fragilis in vitro; format: cell-based; conditions: Bacteroides fragilis; B. fragilis (average 3-10 strains); read-out: Minimum Inhibitory Concentration (MIC)
Description: as §1

Meningococci = assay: MIC against Meningococci in vitro; format: cell-based; conditions: Meningococci (average 5 strains); read-out: Minimum Inhibitory Concentration (MIC)
Description: as §1

Gonococci = assay: MIC against Gonococci in vitro; format: cell-based; conditions: Gonococci (average 17 strains); read-out: Minimum Inhibitory Concentration (MIC)
Description: as §1

[1] = tested on: Vibrio cholerae ATCC14035; assay: MIC against Vibrio cholerae ATCC14035 in vitro; format: cell-based; conditions: ATCC14035, read-out: Minimum Inhibitory Concentration (MIC)
Description: as §1

St. agalactiae CN1143 = assay: MIC against St. agalactiae CN1143 in vitro; format: cell-based; conditions: Streptococcus agalactiae, read-out: Minimum Inhibitory Concentration (MIC)
Description: as §1

Staph. aureus CN491 = assay: MIC against Staph. aureus CN491 in vitro; format: cell-based; conditions: Staphylococcus aureus, read-out: Minimum Inhibitory Concentration (MIC)
Description: as §1

Esch. coli CN314 = assay: MIC against Esch. coli CN314 in vitro; format: cell-based; conditions: Escherichia coli, read-out: Minimum Inhibitory Concentration (MIC)
Description: as §1

Pr. mirabilis S2409 = assay: MIC against Pr. mirabilis S2409 in vitro; format: cell-based; conditions: Proteus mirabilis, read-out: Minimum Inhibitory Concentration (MIC)
Description: as §1

Acute toxicity in mouse = conditions: in vivo, ip; i.p. mouse
Salmonella dublin = assay: Experimental salmonellosis in calves; format: in vivo; conditions: 1 mg/kg daily plus SDZ 20 mg/kg, 5 days from two days after infection; deaths/calves
anaerobic bacteria = conditions: general statement on trimethoprim; cited from earlier work
aerobic bacteria = conditions: general statement on trimethoprim; cited from earlier work

`Cl.Cl.Nc1ncc(Cc2cc(Cl)c(N)c3ncccc23)c(N)n1` [Compound 28, 2,4-Diamino-5-(8-amino-7-chloro-5-quinolylmethyl)pyrimidine dihydrochloride] showed an MIC (Staph. aureus) of 0.1 µg/mL.

In the case of `COc1ccc(Cc2cnc(N)nc2N)c2cccnc12` [Compound 3, 2,4-Diamino-5-(8-methoxy-5-quinolylmethyl)-pyrimidine], the MIC (Staph. aureus) is reported as 0.5 µg/mL (≈ 1.78 µM).

With `COc1cc(Cc2cnc(N)nc2N)c2ccncc2c1N.Cl.Cl` [Compound 25, 2,4-Diamino-5-(8-amino-7-methoxy-5-isoquinolylmethyl)pyrimidine dihydrochloride] the MIC (St. faecalis CN478) was 0.05 µg/mL, the MIC (B. fragilis) was 2.6 µg/mL and the MIC (Meningococci) was 3.1 µg/mL. It also gave an MIC (Gonococci) of 8.1 µg/mL, an MIC [1] of 0.05 µg/mL and an MIC (St. agalactiae CN1143) of 0.05 µg/mL. The MIC (Staph. aureus CN491) was 0.05 µg/mL, the MIC (Esch. coli CN314) was 0.05 µg/mL and the MIC (Pr. mirabilis S2409) was 5 µg/mL.

With `COc1cc(Cc2cnc(N)nc2N)c2cccnc2c1SC` [Compound 31, 2,4-Diamino-5-(7-methoxy-8-methylthio-5-quinolylmethyl)pyrimidine] the MIC (St. faecalis CN478) was 0.05 µg/mL (≈ 0.153 µM), the MIC (B. fragilis) was 3.1 µg/mL (≈ 9.47 µM) and the MIC (Meningococci) was 14.4 µg/mL (≈ 44 µM). For the same molecule, the MIC (Gonococci) was 34.4 µg/mL (≈ 105 µM), the MIC [1] was 0.05 µg/mL (≈ 0.153 µM) and the MIC (St. agalactiae CN1143) was 0.5 µg/mL (≈ 1.53 µM). For the same molecule, the MIC (Staph. aureus CN491) was 0.05 µg/mL (≈ 0.153 µM), the MIC (Esch. coli CN314) was 0.1 µg/mL (≈ 0.305 µM) and the MIC (Pr. mirabilis S2409) was 5 µg/mL (≈ 15.3 µM).

`COc1cc(Cc2cnc(N)nc2N)c2c(c1OC)OC=CC2` [Compound 10, 2,4-Diamino-5-(7,8-dimethoxy-4 --H--1-benzopyran-5-ylmethyl)pyrimidine acetate] gave an MIC (Staph. aureus) of 0.05 µg/mL.

Work on `COc1cc(Cc2cnc(N)nc2N)c2c(c1OC)OC(C)(C)C=C2` [Compound 6, 2,4-Diamino-5-(7,8-dimethoxy-2,2-dimethyl-2 --H--1-benzopyran-5-ylmethyl) pyrimidine lactate] yielded an MIC (Staph. aureus) of 0.05 µg/mL.

`CC=Cc1cc(Cc2cnc(N)nc2N)c2cccnc2c1OC` [Compound 14, 2,4-Diamino-5-(8-methoxy-7-(1-propenyl)-5-quinolylmethyl)pyrimidine] showed an MIC (Staph. aureus) of 0.05 µg/mL (≈ 0.156 µM).

Molecule `COc1cc(Cc2cnc(N)nc2N)c2cccnc2c1N.Cl.Cl` [Compound 8, 2,4-Diamino-5-(8-amino-7-methoxy-5-quinolylmethyl)-pyrimidine dihydrochloride] has an MIC (St. faecalis CN478) of 0.1 µg/mL, an MIC (B. fragilis) of 5.2 µg/mL and an MIC (Meningococci) of 3.7 µg/mL. It also gave an MIC (Gonococci) of 11.1 µg/mL, an MIC [1] of 0.05 µg/mL and an LD50 (Acute toxicity in mouse) of 500 mg/kg. The MIC (St. agalactiae CN1143) was 0.1 µg/mL, the MIC (Staph. aureus CN491) was 0.1 µg/mL and the MIC (Esch. coli CN314) was 0.1 µg/mL. It also gave an MIC (Pr. mirabilis S2409) of 1 µg/mL.

`COc1cc(Cc2cnc(N)nc2N)c2c(c1OC)OC(C)CC2` (centres unmarked) [Compound 22, 2,4-Diamino-5-(7,8-dimethoxy-3,4-dihydro-2-methyl-2 --H---1-benzopyran-5-ylmethyl)pyrimidine] gave an MIC (Staph. aureus) of 0.1 µg/mL (≈ 0.303 µM).

For `CSc1cc(Cc2cnc(N)nc2N)c2cccnc2c1N.Cl.Cl` [Compound 30, 2,4-Diamino-5-(8-amino-7-methylthio-5-quinolylmethyl)pyrimidine dihydrochloride], the MIC (Staph. aureus) was 0.1 µg/mL.

`COc1cc(Cc2cnc(N)nc2N)c2c(c1OC)OC(C)=CC2` [Compound 19, 2,4-Diamino-5-(7,8-dimethoxy-2-methyl-4H--1-benzopyran-5-ylmethyl)pyrimidine] gave an MIC (Staph. aureus) of 0.05 µg/mL (≈ 0.152 µM).

`C=CCc1cc(Cc2cnc(N)nc2N)c2cccnc2c1OCCOC` [Compound 27, 2,4-Diamino-5-(7-allyl-8-(2-methoxyethoxy)-5-quinolylmethyl)pyrimidine] showed an MIC (Staph. aureus) of 0.1 µg/mL (≈ 0.274 µM).

In the case of `C=CCc1cc(Cc2cnc(N)nc2N)c2cccnc2c1O` [Compound 11, 5-(7-Allyl-8-hydroxy-5-quinolylmethyl)-2,4-diaminopyrimidine], the MIC (Staph. aureus) is reported as 1 µg/mL (≈ 3.25 µM).

For `COc1cc(Cc2cnc(N)nc2N)c2cccnc2c1OC` [Compound 24, 2,4-Diamino-5-(7,8-dimethoxy-5-quinolylmethyl)pyrimidine], the MIC (Staph. aureus) was 0.1 µg/mL (≈ 0.321 µM).

`Cc1cc(Cc2cnc(N)nc2N)c2cccnc2c1.Cl.Cl` [Compound 17, 2,4-Diamino-5-(7-methyl-5-quinolylmethyl)-pyrimidine dihydrochloride] gave an MIC (Staph. aureus) of 0.5 µg/mL.

With `CCOc1cc(Cc2cnc(N)nc2N)c2cccnc2c1N` [Compound 26, 2,4-Diamino-5-(8-amino-7-ethoxy-5-quinolylmethyl)pyrimidine] the MIC (Staph. aureus) was 0.05 µg/mL (≈ 0.161 µM).

Molecule `COc1cc(Cc2cnc(N)nc2N)c2c(c1OC)OC(C)C=C2` (centres unmarked) [Compound 4, 2,4-Diamino-5-(7,8-dimethoxy-2-methyl-2 --H--1-benzopyran-5-ylmethyl) pyrimidine lactate] has an MIC (St. faecalis CN478) of 0.01 µg/mL, an MIC (B. fragilis) of 0.48 µg/mL and an MIC (Meningococci) of 2.8 µg/mL. The MIC (Gonococci) was 4.6 µg/mL, the MIC [1] was 0.05 µg/mL and the MIC (St. agalactiae CN1143) was 0.05 µg/mL. It also gave an MIC (Staph. aureus CN491) of 0.05 µg/mL, an MIC (Esch. coli CN314) of 0.1 µg/mL and an MIC (Pr. mirabilis S2409) of 5 µg/mL.

`CCCc1cc(Cc2cnc(N)nc2N)c2cccnc2c1OC` [Compound 20, 2,4-Diamino-5-(8-methoxy-7-propyl-5-quinolylmethyl)-pyrimidine] gave an MIC (Staph. aureus) of 0.05 µg/mL (≈ 0.155 µM).

`COc1cc(Cc2cnc(N)nc2N)c2cccnc2c1N(C)C.Cl.Cl` [Compound 15, 2,4-Diamino-5-(8-dimethylamino-7-methoxy-5-quinolylmethyl)pyrimidine dihydrochloride] showed an MIC (Staph. aureus) of 0.5 µg/mL.

`Cc1cc(Cc2cnc(N)nc2N)c2cccnc2c1N(C)C.Cl.Cl` [Compound 9, 2,4-Diamino-5-(8-dimethylamino-7-methyl-5-quinolylmethyl)pyrimidine dihydrochloride] showed an MIC (St. faecalis CN478) of 0.05 µg/mL, an MIC (B. fragilis) of 7.8 µg/mL and an MIC (Meningococci) greater than 25 µg/mL. The MIC (Gonococci) was greater than 25 µg/mL, the MIC [1] was 0.5 µg/mL and the MIC (St. agalactiae CN1143) was 0.5 µg/mL. For the same molecule, the MIC (Staph. aureus CN491) was 0.5 µg/mL, the MIC (Esch. coli CN314) was 0.1 µg/mL and the MIC (Pr. mirabilis S2409) was 5 µg/mL.

`C=CCc1cc(Cc2cnc(N)nc2N)c2c(c1OC)NCCC2` [Compound 36, 5-(7-allyl-8-methoxy-5-(1,2,3,4-tetrahydro-quinolylmethyl))-2,4-diaminopyrimidine] showed an MIC (Staph. aureus) of 0.05 µg/mL (≈ 0.154 µM).

Work on `Cc1cc(Cc2cnc(N)nc2N)c2cccnc2c1N.Cl` [Compound 5, 2,4-Diamino-5-(8-amino-7-methyl-5-quinolylmethyl)-pyrimidine hydrochloride] yielded an MIC (Staph. aureus) of 0.5 µg/mL.

Molecule `COc1cc(Cc2cnc(N)nc2N)c2ccc(=O)oc2c1OC` [Compound 7, 2,4-Diamino-5-(7,8-dimethoxy-2-oxo-2 --H--1-benzopyran-5-ylmethyl)pyrim] has an MIC (Staph. aureus) of 0.5 µg/mL (≈ 1.52 µM).

In the case of `Cc1cc(Cc2cnc(N)nc2N)c2ncccc2c1N` [Compound 34, 2,4-Diamino-5-(5-amino-6-methyl-8-quinolylmethyl)pyrimidine], the MIC (Staph. aureus) is reported as 5 µg/mL (≈ 17.8 µM).

In the case of `COc1cc(Cc2cnc(N)nc2N)cc(OC)c1OC` [TMP, 2,4-diamino-5-(3,4,5-trimethoxybenzyl)pyrimidine, reference compound], the MIC (St. faecalis CN478) is reported as 0.1 µg/mL (≈ 0.344 µM), the Mortality (Salmonella dublin) is reported as 2/7 and the MIC (B. fragilis) is reported as 4 µg/mL (≈ 13.8 µM). The MIC (Staph. aureus) was 0.5 µg/mL (≈ 1.72 µM), the MIC (Meningococci) was 18 µg/mL (≈ 62 µM) and the MIC (Gonococci) was 37.1 µg/mL (≈ 128 µM). For the same molecule, the MIC [1] was 0.5 µg/mL (≈ 1.72 µM), the “level of activity against anaerobic bacteria” value (anaerobic bacteria) was “activity against anaerobic bacteria is less impressive” and the MIC (St. agalactiae CN1143) was 0.5 µg/mL (≈ 1.72 µM). The “level of activity against aerobic bacteria” value (aerobic bacteria) was “excellent level of activity against most aerobic bacteria”, the MIC (Staph. aureus CN491) was 0.5 µg/mL (≈ 1.72 µM) and the MIC (Esch. coli CN314) was 0.05 µg/mL (≈ 0.172 µM). The MIC (Pr. mirabilis S2409) was 5 µg/mL (≈ 17.2 µM).

In the case of `C=CCc1cc(Cc2cnc(N)nc2N)c2ccc(C)nc2c1O` [Compound 13, 5-(7-Allyl-8-hydroxy-2-methyl-5-quinolylmethyl)-2,4-diaminopyrimidine], the MIC (Staph. aureus) is reported as 0.1 µg/mL (≈ 0.311 µM).

With `CC(=O)O.Cc1cc(Cc2cnc(N)nc2N)c2cccnc2c1-n1cccc1` [Compound 18, 2,4-Diamino-5-(8-(1-pyrrolyl)-7-methyl-5-quinolylmethyl)pyrimidine acetate] the MIC (Staph. aureus) was 0.5 µg/mL.

Work on `COc1cc(Cc2cnc(N)nc2N)c2ncccc2c1N` [Compound 35, 2,4-Diamino-5-(5-amino-6-methoxy-8-quinolylmethyl)pyrimidine] yielded an MIC (Staph. aureus) of 0.5 µg/mL (≈ 1.69 µM).

Molecule `C=CCc1cc(Cc2cnc(N)nc2N)c2ccc(C)nc2c1OC` [Compound 16, 5-(7-Allyl-8-methoxy-2-methyl-5-quinolylmethyl)-2,4-diaminopyrimidine] has an MIC (Staph. aureus) of 0.05 µg/mL (≈ 0.149 µM).

In the case of `COc1cc(Cc2cnc(N)nc2N)c2cccnc2c1O` [Compound 23, 2,4-Diamino-5-(8-hydroxy-7-methoxy-5-quinolylmethyl)pyrimidine], the MIC (Staph. aureus) is reported as 5 µg/mL (≈ 16.8 µM).

For `C=CCc1cc(Cc2cnc(N)nc2N)c2cccnc2c1OC` [Compound 12, 5-(7-Allyl-8-methoxy-5-quinolylmethyl)-2,4-diaminopyrimidine], the MIC (Staph. aureus) was 0.05 µg/mL (≈ 0.156 µM).

In the case of `COc1cc(Cc2cnc(N)nc2N)c2cccnc2c1` [Compound 29, 2,4-Diamino-5-(7-methoxy-5-quinolylmethyl)pyridimine], the MIC (Staph. aureus) is reported as 0.5 µg/mL (≈ 1.78 µM).

Molecule `COc1cc(Cc2cnc(N)nc2N)c2c(c1OC)OCCC2` [Compound 2, 2,4-Diamino-5-(3,4-dihydro-7,8-dimethoxy-2 --H--1-benzopyran-5-yl) pyrimidine] has an MIC (Staph. aureus) of 0.5 µg/mL (≈ 1.58 µM).
